Reference: patent US20070219212A1, “Pyranouidole Derivatives and the Use Thereof for the Treatment of Hepatitis C Virus Infection or Disease” (priority 2004, published 2007)
Where two headings read alike, the source gives them in different places.

What was measured:
[1] = biological target: BB7 RNA-dependent RNA polymerase hepatitis C virus protein (Con1 HCV sequence) (Hepatitis C virus genotype 1b, UniProt Q9WMX2); experiment: Hepatitis C polymerase (BB7) inhibition; type: biochemical
From the text: For purposes of this invention, the term “BB7” denotes an RNA-dependent RNA polymerase hepatitis C virus protein sequence which is derived from HCV replicon. A discussion of BB7 and related technology can be found in Blight, K. et al. (2000) Science 290:1972-1974. BB7 can be licensed from Apath, LLC (893 North Warson Road, Saint Louis Mo. 63141, USA). BB7 is also referred to as Con1 HCV sequence and discussions of Con1 can be found in the following references: Lohmann, V. et al. (1999) Science 285:110-113; Pietschmann, T. et al. (2001) J. Virol. […]:1252-1264; Lohmann, V. et al. (2001) J. Virol. 75:1437-1449.
(§1) The ability of the compounds of the present invention to inhibit Hepatitis C Polymerase was established by the following experimental procedure:
(§2) • 0.5M Na Phosphate buffer. Per liter, weigh 134 gr Na2HPO4.7H2O, add water to 900 ml. Adjust pH to 7.0 with phosphoric acid. Top off with water to 1 L. • Dilute nucleotides 1:1000 to 10 μM (GTP and CTP) or 1:100 to 100 μM (ATP and UTP) into RNase free water. Procedure: • (1) Compounds 10 μl at […] in 15% dimethylsulfoxide (DMSO) When starting from 100 μg/ml compound stock in 1% DMSO: Dispense 5 μl 30% DMSO per well Dispense 5 μl compound (100 μg/ml) per well. When starting from 50 μg/ml compound stock in 15% DMSO: Add 10 μl compound per well.
(§3) Add 20 μl enzyme mix into each well of the assay plate. Incubate compound and enzyme at room temperature for 15 minutes • (3) Template mix—prepare ahead
(§4) Spin down a tube of RNA (5 μg/tube stored in 75% ethanol and 0.3 M sodium acetate) in a microcentrifuge for 20 minutes at 4° C. One tube is enough for 1-1.5 plates. Remove as much ethanol from the tube as possible by inverting the tube. Be gentle, pellet RNA may not adhere to the tube. Vacuum dry the RNA. Resuspend the RNA by adding 1 ml of DEPC water, close the cap of the tube tightly. To dissolve RNA, incubate RNA solution on ice for ˜60 minutes and gently vortex. Spin briefly to ensure all RNA solution is down to the bottom of the tube before opening cap. Gently transfer RNA solution into a 5 ml or larger tube. Add another 3 ml of DEPC water (total 4 ml of volume).
(§5) Add the following volumes of reagents
(§6) Add 20 μl template mix per reaction (i.e. 20 ng of pOF per reaction or ˜3 nM) • (4) Incubate reaction at room temperature (22-25° C.) for 2 hours. • (5) Stop reaction by adding 50 μl of 170 mM EDTA.
(§7) Final concentration of EDTA is 85 mM. • (6) Prewet filters of Millipore multiscreen assay plate by adding 200 μl of 0.5 M sodium phosphate buffer, pH 7.0 into each well. Let stand at room temperature for 2-3 minutes. • (7) Place the multiscreen filter plate onto a Millipore Manifold and turn on vacuum to allow buffer to flow through. Turn off vacuum. Transfer 80 μl of the reaction product into each well of the filter plate. Let stand for 2-3 minutes. Turn on vacuum to filter reaction product. • (8) Turn off vacuum. Add 200 μl of 0.5 M sodium phosphate buffer, pH 7.0 into each well to wash filter. Turn on vacuum.
(§8) Repeat step (8) three more times. • (9) Remove polypropylene bottom. Spot dry filter at the bottom with paper towel. Air dry filter plate on a bench for 1 hour. Add 40 μl Super Mix scintillant. Seal top of the plate with a tape. Place plate into a Packard carrier or micro-beta carrier. • (10) Count plate using a Packard Topcount or micro-beta counter. Count (for example using Program 10) for ^33P in Top count or ^33P program in micro-beta.
(§9) See, Ferrari et al. 1999. J. Virology 73:1649-1654: “Characterization of soluble Hepatitis C virus RNA-dependent RNA polymerase expressed in E. coli and Takamizawa et al. 1991” and J. Virology 65:1105-1113: “Structure and characterization of the Hepatitis C virus genome isolated from human carriers,” both references are hereby incorporated by reference.

[2] = biological target: T1, NS5B from the BK strain (genotype 1b) (Hepatitis C virus genotype 1b, UniProt P26663); experiment: Hepatitis C polymerase (NS5B, BK strain) inhibition, radioactive filter assay; type: biochemical; conditions: NS5B BK strain (genotype 1b)
T1 construct: NS5B from the BK strain (genotype 1b) is expressed in E coli as a protein in which the 21 C-terminal amino acids are replaced; made in house; host or cells: E. coli
From the text: as §1
NS5B from the BK strain (genotype 1b) is expressed in E coli as a protein in which the 21 C-terminal amino acids are replaced with a short linker and a hexahistidine tag ([…]). The purified protein is mixed with radioactive nucleotides and allowed to replicate a heteropolymeric RNA substrate, primed by an endogenous short hairpin, resulting in an approximately 760 nt product. The radioactive product is captured on a filter and quantitated after removal of the unincorporated nucleotides.
as §2, §3, §4, §5, §6, §7, §8, §9

[3] = BB7 (Con1) NS5B, read-out: BB7 IC50

Chain of BB7 RNA-dependent RNA polymerase hepatitis C virus protein (Con1 HCV sequence) (Q9WMX2 2420-3010): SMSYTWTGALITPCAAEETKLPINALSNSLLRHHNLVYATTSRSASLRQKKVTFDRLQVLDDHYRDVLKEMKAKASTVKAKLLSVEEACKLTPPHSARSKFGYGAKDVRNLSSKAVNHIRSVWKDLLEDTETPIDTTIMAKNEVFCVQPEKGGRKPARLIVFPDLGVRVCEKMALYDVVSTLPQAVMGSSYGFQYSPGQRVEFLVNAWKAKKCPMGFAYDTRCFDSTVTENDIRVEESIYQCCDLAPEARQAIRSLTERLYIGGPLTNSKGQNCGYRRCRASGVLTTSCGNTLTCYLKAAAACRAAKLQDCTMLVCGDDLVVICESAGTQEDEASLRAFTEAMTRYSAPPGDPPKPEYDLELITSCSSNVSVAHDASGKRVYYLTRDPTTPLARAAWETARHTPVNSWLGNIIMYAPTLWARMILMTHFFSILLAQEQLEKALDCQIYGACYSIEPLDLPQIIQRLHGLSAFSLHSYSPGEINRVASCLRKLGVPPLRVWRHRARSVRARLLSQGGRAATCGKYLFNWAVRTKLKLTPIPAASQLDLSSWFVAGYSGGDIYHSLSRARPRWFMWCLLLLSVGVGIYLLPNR
T1 sequence (P26663 2420-2989): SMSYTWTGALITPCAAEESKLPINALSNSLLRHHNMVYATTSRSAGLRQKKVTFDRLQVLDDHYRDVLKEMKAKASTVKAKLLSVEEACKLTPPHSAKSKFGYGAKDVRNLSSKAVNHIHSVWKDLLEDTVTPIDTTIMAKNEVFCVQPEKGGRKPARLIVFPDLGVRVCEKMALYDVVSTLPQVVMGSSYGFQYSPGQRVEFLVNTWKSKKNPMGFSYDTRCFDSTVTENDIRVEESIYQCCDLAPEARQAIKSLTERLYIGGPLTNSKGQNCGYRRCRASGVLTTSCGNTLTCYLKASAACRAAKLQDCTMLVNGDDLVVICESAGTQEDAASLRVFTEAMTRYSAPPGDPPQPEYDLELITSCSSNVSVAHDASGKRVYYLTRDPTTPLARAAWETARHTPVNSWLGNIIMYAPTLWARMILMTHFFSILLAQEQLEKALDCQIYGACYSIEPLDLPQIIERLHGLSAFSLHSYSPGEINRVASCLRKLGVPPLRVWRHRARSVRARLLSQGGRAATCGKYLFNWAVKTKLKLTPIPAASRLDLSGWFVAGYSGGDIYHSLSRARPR

Compound | IC50 [1] [nM] | IC50 [2] [nM] | IC50 [1, 3] [nM]
CCCC1(CC(=O)O)OCCc2c1[nH]c1c(C)c(OCc3cccnc3N)cc(C#N)c21 (centres unmarked) [Example 51] | < 500 | < 500 | –
CCCC1(CC(=O)O)OCCc2c1[nH]c1c(C)c(OCc3ccnc(C)c3)cc(C#N)c21 (centres unmarked) [Example 52] | < 500 | < 500 | –
CCC[C@]1(CC(=O)O)OCCc2c1[nH]c1c(C)c(OCc3ccnc(C)c3)cc(C#N)c21 [Example 53] | < 500 | < 500 | –
CCCC1(CC(=O)O)OCCc2c1[nH]c1c(C)c(OCc3ccnc(N)c3)cc(C#N)c21 (centres unmarked) [Example 54] | < 500 | < 500 | –
CCCC1(CC(=O)O)OCCc2c1[nH]c1c(C)c(OCc3cc(C)on3)cc(C#N)c21 (centres unmarked) [Example 56] | < 500 | < 500 | –
CCC[C@@]1(CC(=O)O)OCCc2c1[nH]c1c(C)c(OCc3cc(C)on3)cc(C#N)c21 [Example 57] | 500 to 5000 | > 5000 | –
CCCC1(CC(=O)O)OCCc2c1[nH]c1c(C)c(OCCN3CCCC3)cc(C#N)c21 (centres unmarked) [Example 58] | 500 to 5000 | 500 to 5000 | –
CCCC1(CC(=O)O)OCCc2c1[nH]c1c(C)c(OCc3cccc(N)n3)cc(C#N)c21 (centres unmarked) [Example 59] | < 500 | < 500 | –
CCCC1(CC(=O)O)OCCc2c1[nH]c1c(C)c(OCc3nccs3)cc(C#N)c21 (centres unmarked) [Example 60] | < 500 | < 500 | –
CCCC1(CC(=O)O)OCCc2c1[nH]c1c(C)c(OCc3ccnc(C(=O)O)c3)cc(C#N)c21 (centres unmarked) [Example 61] | < 500 | < 500 | –
CCCC1(CC(=O)O)OCCc2c1[nH]c1c(C)c(OCc3cccnc3C)cc(C#N)c21 (centres unmarked) [Example 62] | – | < 500 | < 500
CCCC1(CC(=O)O)OCCc2c1[nH]c1c(C)c(OCc3cccc(C)n3)cc(C#N)c21 (centres unmarked) [Example 63] | – | < 500 | < 500
CCCC1(CC(=O)O)OCCc2c1[nH]c1c(C)c(OCc3cnccn3)cc(C#N)c21 (centres unmarked) [Example 64] | < 500 | < 500 | –
CCCC1(CC(=O)O)OCCc2c1[nH]c1c(C)c(OCc3ccnc(C(N)=O)c3)cc(C#N)c21 (centres unmarked) [Example 65] | < 500 | < 500 | –
CCCC1(CC(=O)O)OCCc2c1[nH]c1c(C)c(OCc3cc(C)nn3C)cc(C#N)c21 (centres unmarked) [Example 66] | < 500 | < 500 | –
CCCC1(CC(=O)O)OCCc2c1[nH]c1c(C)c(OCc3ccc(N4CCOCC4)nc3)cc(C#N)c21 (centres unmarked) [Example 68] | < 500 | < 500 | –
CCCC1(CC(=O)O)OCCc2c1[nH]c1c(C)c(OCc3ccc(N)nc3)cc(C#N)c21 (centres unmarked) [Example 69] | < 500 | < 500 | –
CCCC1(CC(=O)O)OCCc2c1[nH]c1c(C)c(OCc3ccc(C)nc3)cc(C#N)c21 (centres unmarked) [Example 70] | < 500 | < 500 | –
CCCC1(CC(=O)O)OCCc2c1[nH]c1c(C)c(OCc3cc[n+]([O-])cc3)cc(C#N)c21 (centres unmarked) [Example 71] | < 500 | < 500 | –
CCCC1(CC(=O)O)OCCc2c1[nH]c1c(C)c(OCc3csc(C(C)C)n3)cc(C#N)c21 (centres unmarked) [Example 72] | – | < 500 | < 500
CCCC1(CC(=O)O)OCCc2c1[nH]c1c(C)c(OCc3ccc(C(F)(F)F)nc3)cc(C#N)c21 (centres unmarked) [Example 73] | < 500 | < 500 | –
CCCC1(CC(=O)O)OCCc2c1[nH]c1c(C)c(OCC3CCNCC3)cc(C#N)c21 (centres unmarked) [Example 74] | < 500 | < 500 | –

Compound | IC50 [1] [nM] | IC50 [2] [nM] | IC50 [1, 3] [nM]
CCCC1(CC(=O)O)OCCc2c1[nH]c1c(C)c(OCc3nn(C)cc3Cl)cc(C#N)c21 (centres unmarked) [Example 75] | < 500 | < 500 | –
CCCC1(CC(=O)O)OCCc2c1[nH]c1c(C)c(OCc3c[nH]cn3)cc(C#N)c21 (centres unmarked) [Example 76] | – | < 500 | < 500
CCCC1(CC(=O)O)OCCc2c1[nH]c1c(C)c(OCc3conc3C)cc(C#N)c21 (centres unmarked) [Example 77] | < 500 | < 500 | –
CCCC1(CC(=O)O)OCCc2c1[nH]c1c(C)c(OCc3cc(C)n(C)n3)cc(C#N)c21 (centres unmarked) [Example 78] | < 500 | < 500 | –
CCCC1(CC(=O)O)OCCc2c1[nH]c1c(C)c(OCc3cc(C)no3)cc(C#N)c21 (centres unmarked) [Example 79] | < 500 | < 500 | –
CCCC1(CC(=O)O)OCCc2c1[nH]c1c(C)c(OCc3c(C)noc3C)cc(C#N)c21 (centres unmarked) [Example 80] | < 500 | < 500 | –
CCCC1(CC(=O)O)OCCc2c1[nH]c1c(C)c(OCc3cc(Br)no3)cc(C#N)c21 (centres unmarked) [Example 81] | < 500 | < 500 | –
CCCC1(CC(=O)O)OCCc2c1[nH]c1c(C)c(OCc3ccn(C)n3)cc(C#N)c21 (centres unmarked) [Example 82] | < 500 | < 500 | –
CCCC1(CC(=O)O)OCCc2c1[nH]c1c(C)c(OCc3cc[nH]n3)cc(C#N)c21 (centres unmarked) [Example 83] | < 500 | < 500 | –
CCCC1(CC(=O)O)OCCc2c1[nH]c1c(C)c(OC(C)c3cc(C)n(C)n3)cc(C#N)c21 (centres unmarked) [Example 84] | – | < 500 | < 500
CCCC1(CC(=O)O)OCCc2c1[nH]c1c(C)c(OCc3csc(C(C)(C)C)n3)cc(C#N)c21 (centres unmarked) [Example 85] | < 500 | < 500 | –
CCCC1(CC(=O)O)OCCc2c1[nH]c1c(C)c(OCc3nc(C)ccc3OC)cc(C#N)c21 (centres unmarked) [Example 86] | < 500 | < 500 | –
CCCC1(CC(=O)O)OCCc2c1[nH]c1c(C)c(OCc3nnc(C(C)(C)C)s3)cc(C#N)c21 (centres unmarked) [Example 87] | < 500 | < 500 | –
CCCC1(CC(=O)O)OCCc2c1[nH]c1c(C)c(OCc3noc(C(C)(C)C)n3)cc(C#N)c21 (centres unmarked) [Example 88] | < 500 | < 500 | –
CCCC1(CC(=O)O)OCCc2c1[nH]c1c(C)c(OCCCc3cc(C)no3)cc(C#N)c21 (centres unmarked) [Example 89] | < 500 | < 500 | –
CCCC1(CC(=O)O)OCCc2c1[nH]c1c(C)c(OCc3ccnc(C(C)=O)c3)cc(C#N)c21 (centres unmarked) [Example 90] | < 500 | < 500 | –
CCCC1(CC(=O)O)OCCc2c1[nH]c1c(C)c(OCc3ccnc(C(C)(C)O)c3)cc(C#N)c21 (centres unmarked) [Example 91] | < 500 | < 500 | –
CCCC1(CC(=O)O)OCCc2c1[nH]c1c(C)c(OCc3ccnc(C(C)O)c3)cc(C#N)c21 (centres unmarked) [Example 92] | < 500 | < 500 | –
CCCC1(CC(=O)O)OCCc2c1[nH]c1c(C)c(OCc3ccnc(NC(C)=O)c3)cc(C#N)c21 (centres unmarked) [Example 93] | < 500 | < 500 | –
CCCC1(CC(=O)O)OCCc2c1[nH]c1c(C)c(OCc3ccnc(COC)c3)cc(C#N)c21 (centres unmarked) [Example 94] | – | < 500 | < 500
CCCC1(CC(=O)O)OCCc2c1[nH]c1c(C)c(OCc3ccnc(C(C)=NOC)c3)cc(C#N)c21 (centres unmarked) [Example 95] | < 500 | < 500 | –
